Results taken from PubChem BioAssay (NCI).
Several values for one entry are separate records, joined by “and”; a condition that tells them apart may be missing. Equal entries are not always repeated.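 1) Cells in 96-well plates. 2) Compound, 48 h, 5 concentrations. 3) Linear interpolation between surrounding doses. 4) Unreached endpoint = highest concentration. GI50 is the concentration that inhibits growth by half. The concentration for full growth arrest is given as TGI.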

Assays:
Test in all cases: NCI anticancer screen, dose series, 48 h
COLO 205 colon = system: COLO 205 colon
SK-MEL-28 melanoma = system: SK-MEL-28 melanoma
K-562 leukemia = system: K-562 leukemia
SK-MEL-5 melanoma = system: SK-MEL-5 melanoma
OVCAR-4 ovarian = system: OVCAR-4 ovarian
HCC-2998 colon = system: HCC-2998 colon
HL-60(TB) leukemia = system: HL-60(TB) leukemia
MOLT-4 leukemia = system: MOLT-4 leukemia
SK-OV-3 ovarian = system: SK-OV-3 ovarian
HT29 colon = system: HT29 colon

Compound | TGI (COLO 205 colon) [µM] | TGI (SK-MEL-28 melanoma) | TGI (K-562 leukemia) | TGI (SK-MEL-5 melanoma) [µM] | TGI (OVCAR-4 ovarian) [µM] | TGI (HCC-2998 colon) | TGI (HL-60(TB) leukemia) | TGI (MOLT-4 leukemia) | TGI (SK-OV-3 ovarian) | GI50 (K-562 leukemia) | GI50 (SK-MEL-5 melanoma) [µM] | GI50 (HCC-2998 colon) | GI50 (HL-60(TB) leukemia) [nM] | GI50 (MOLT-4 leukemia) | GI50 (SK-MEL-28 melanoma) | GI50 (HT29 colon) | TGI (HT29 colon) | GI50 (COLO 205 colon) [µM] | GI50 (OVCAR-4 ovarian) [µM] | GI50 (SK-OV-3 ovarian) [µM]
CC(=O)N(CCN)CCN | > 10 | > 10 µM | > 10 µM | > 100 | > 10 | > 10 µM | > 10 µM | > 10 µM | > 100 µM |  |  |  |  |  |  |  |  |  |  | 
COc1ccc(OC)c(-c2cc(-c3ccccc3)nn2-c2ccc(S(=O)(=O)NC(C)=O)cc2)c1 |  |  | 9.76 µM | 26.8 |  | 13.8 µM | > 100 µM | > 100 µM |  | 3.36 µM | 11.8 | 3.08 µM | 28000 | 6.57 µM |  |  |  |  |  | 
O=C(CC(C(=O)c1cccs1)c1ccc2c(c1)OCO2)c1ccc(Br)cc1 (centres undefined) | > 100 | > 100 µM | > 100 µM | > 100 | > 100 | > 100 µM | > 100 µM | > 100 µM | > 100 µM |  |  |  |  |  |  |  |  |  |  | 
CN1C2CC(C#N)C1C=CC2=O (centres undefined) |  | 36.7 µM and > 100 µM | 90.2 µM and > 100 µM | > 100 |  | 51.8 µM and > 100 µM | 53.4 µM and > 100 µM | 68.7 µM and > 100 µM | 62.4 µM and > 100 µM | 14 µM and 78.1 µM | > 100 | 19.5 µM and > 100 µM |  | 15.7 µM and > 100 µM | 17.8 µM and > 100 µM | 17.5 µM and 83.8 µM | 59.5 µM and > 100 µM |  |  | 
O=C(O)c1cc[c]([Hg][S]c2ncnc3nc[nH]c23)cc1 | 26.9 | 32 µM | 15.7 µM | 36.4 | 28.9 |  | 13.4 µM | 15.3 µM | 23.2 µM | 1.7 µM | 14.1 |  | 400 |  | 17.4 µM | 7.27 µM | 21.7 µM | 12.4 | 10.3 | 10.8
Clc1ccc([O][In]([O]c2ccc(Cl)cn2)[O]c2ccc(Cl)cn2)nc1 | > 100 | > 100 µM |  | 76.8 | > 100 | > 100 µM |  |  | > 100 µM |  | 15.8 | > 100 µM |  |  | > 100 µM | > 100 µM | > 100 µM | > 100 | > 100 | 64.4
Fc1cccc(Cl)c1C1SCc2nc3ccccc3n21 (centres undefined) | 47.3 |  | > 100 µM | 29.7 | > 100 | > 100 µM | 33.2 µM | 52.1 µM | 62.2 µM |  |  |  |  |  |  |  | > 100 µM |  |  | 
Cc1cc(Cl)ccc1NC(=O)C(=O)Cc1nc2ccc(C(=O)c3ccccc3)cc2[nH]c1=O | > 100 | > 100 µM |  | > 100 | > 100 | > 100 µM | > 100 µM | > 100 µM | > 100 µM |  |  |  |  |  |  |  | > 100 µM |  |  | 
Cc1ccc(C(=O)/C(=C/c2ccc([N+](=O)[O-])cc2)S(=O)Cc2ccccc2)cc1 (centres undefined) | 3.16 | 3.15 µM | 12.4 µM | 2.99 | 2.78 | 3.29 µM | 5.81 µM |  | 12.5 µM | 0.623 µM | 1.6 | 1.78 µM | 1590 |  | 1.66 µM | 1 µM | 2.44 µM | 1.47 | 1.35 | 3.46
